Assay results taken from ChEMBL document CHEMBL1139652, “6H,13H-Pyrazino[1,2-a;4,5-a']diindole analogs: probing the pharmacophore for allosteric ligands of muscarinic M2 receptors” (Bioorg Med Chem Lett, 2006).

Experiments:
[1] = target: T1, Muscarinic acetylcholine receptor M2 (Homo sapiens, UniProt P08172); test: Inhibition of [3H]NMS dissociation from muscarinic M2 receptor in Na,K,Pi buffer
T1 sequence (P08172 whole entry): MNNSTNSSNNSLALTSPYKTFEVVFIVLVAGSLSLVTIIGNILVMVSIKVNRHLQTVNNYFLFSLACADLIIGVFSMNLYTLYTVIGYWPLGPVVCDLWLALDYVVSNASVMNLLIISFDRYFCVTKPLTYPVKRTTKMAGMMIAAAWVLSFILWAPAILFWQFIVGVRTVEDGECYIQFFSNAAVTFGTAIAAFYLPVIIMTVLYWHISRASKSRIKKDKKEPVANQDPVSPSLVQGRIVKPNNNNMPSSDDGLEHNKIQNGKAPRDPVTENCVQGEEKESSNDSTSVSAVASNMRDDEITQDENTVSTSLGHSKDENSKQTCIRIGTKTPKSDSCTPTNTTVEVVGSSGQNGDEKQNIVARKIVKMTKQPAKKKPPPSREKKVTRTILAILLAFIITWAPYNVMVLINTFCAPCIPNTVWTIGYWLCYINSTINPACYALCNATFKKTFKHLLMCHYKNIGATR

Acetylcholine receptor = Acetylcholine receptor (Torpedo californica, UniProt P02710+P02712+P02714+P02718); test: Displacement of (+/-)-[3H]epibatidine from muscle type nAChR of Torpedo californica in hepes buffer; format: tissue-based, Tetronarce californica
Chain of Acetylcholine receptor (P02710 whole entry): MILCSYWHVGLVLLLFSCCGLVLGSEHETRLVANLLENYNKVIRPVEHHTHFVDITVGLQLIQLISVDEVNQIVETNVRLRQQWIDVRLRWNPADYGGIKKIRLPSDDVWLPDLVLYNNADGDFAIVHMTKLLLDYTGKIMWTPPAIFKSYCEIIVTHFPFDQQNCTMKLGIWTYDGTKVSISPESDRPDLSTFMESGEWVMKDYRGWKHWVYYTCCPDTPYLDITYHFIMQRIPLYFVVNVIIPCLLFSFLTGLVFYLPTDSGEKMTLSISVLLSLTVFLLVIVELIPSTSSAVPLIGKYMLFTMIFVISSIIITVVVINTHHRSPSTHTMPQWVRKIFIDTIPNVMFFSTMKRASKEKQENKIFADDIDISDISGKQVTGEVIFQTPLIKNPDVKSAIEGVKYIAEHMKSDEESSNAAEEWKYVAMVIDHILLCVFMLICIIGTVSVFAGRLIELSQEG
Chain of Acetylcholine receptor (P02712 whole entry): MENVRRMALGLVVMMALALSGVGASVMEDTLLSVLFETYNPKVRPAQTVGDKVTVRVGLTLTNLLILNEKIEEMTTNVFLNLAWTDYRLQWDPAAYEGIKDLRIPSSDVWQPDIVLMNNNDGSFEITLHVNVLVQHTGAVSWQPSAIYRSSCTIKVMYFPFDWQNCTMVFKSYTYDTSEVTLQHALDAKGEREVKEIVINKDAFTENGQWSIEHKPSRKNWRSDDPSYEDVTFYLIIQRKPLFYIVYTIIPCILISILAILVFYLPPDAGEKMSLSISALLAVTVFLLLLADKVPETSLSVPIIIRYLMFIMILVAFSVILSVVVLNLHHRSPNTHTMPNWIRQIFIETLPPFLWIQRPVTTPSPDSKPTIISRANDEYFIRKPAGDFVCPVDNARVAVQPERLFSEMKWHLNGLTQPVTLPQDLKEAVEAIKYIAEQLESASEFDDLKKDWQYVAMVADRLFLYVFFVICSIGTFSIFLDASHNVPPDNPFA
Chain of Acetylcholine receptor (P02718 whole entry): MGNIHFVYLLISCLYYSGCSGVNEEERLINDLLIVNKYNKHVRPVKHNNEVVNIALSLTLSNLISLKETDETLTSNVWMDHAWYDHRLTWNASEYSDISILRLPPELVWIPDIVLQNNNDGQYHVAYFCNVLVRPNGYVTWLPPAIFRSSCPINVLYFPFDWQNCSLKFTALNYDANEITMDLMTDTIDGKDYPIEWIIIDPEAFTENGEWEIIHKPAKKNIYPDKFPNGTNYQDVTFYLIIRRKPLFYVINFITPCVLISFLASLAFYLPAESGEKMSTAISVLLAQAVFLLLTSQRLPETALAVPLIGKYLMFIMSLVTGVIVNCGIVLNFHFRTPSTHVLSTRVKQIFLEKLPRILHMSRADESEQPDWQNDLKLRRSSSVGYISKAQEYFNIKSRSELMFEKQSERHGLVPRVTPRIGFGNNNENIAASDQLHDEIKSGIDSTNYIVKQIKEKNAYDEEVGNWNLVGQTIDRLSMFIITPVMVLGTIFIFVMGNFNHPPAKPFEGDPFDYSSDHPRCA
Chain of Acetylcholine receptor (P02714 whole entry): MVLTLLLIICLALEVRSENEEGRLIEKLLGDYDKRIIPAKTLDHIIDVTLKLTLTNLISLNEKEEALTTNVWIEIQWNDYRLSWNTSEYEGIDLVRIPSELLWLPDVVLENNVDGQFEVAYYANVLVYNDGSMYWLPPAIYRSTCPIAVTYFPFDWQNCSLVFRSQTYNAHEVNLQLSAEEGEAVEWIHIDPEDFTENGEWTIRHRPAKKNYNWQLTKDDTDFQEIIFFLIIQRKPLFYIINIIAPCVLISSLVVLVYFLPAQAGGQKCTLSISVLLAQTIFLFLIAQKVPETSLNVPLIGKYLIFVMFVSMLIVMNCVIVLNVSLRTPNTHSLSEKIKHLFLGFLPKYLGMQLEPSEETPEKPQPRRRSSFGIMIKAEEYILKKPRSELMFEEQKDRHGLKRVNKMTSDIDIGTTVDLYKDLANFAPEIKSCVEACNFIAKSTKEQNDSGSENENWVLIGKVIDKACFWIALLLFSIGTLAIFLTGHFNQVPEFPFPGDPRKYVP

[2] = Selectivity for muscle type nAChR over muscarinic M2 receptor in hepes buffer
[3] = target: T1, Muscarinic acetylcholine receptor M2; test: Inhibition of [3H]NMS dissociation from muscarinic M2 receptor in hepes buffer

Compound	Selectivity ratio [2]	EC50 [3] [nM]	EC50 [1] [nM]	Ki (Acetylcholine receptor) [nM]
C1=C2CN3CC[C@]45c6ccccc6N6[C@@H]7OCC=C8CN9CC[C@]%10%11c%12ccccc%12N([C@H](OC1)[C@@H]([C@H]64)[C@H]2C[C@H]35)[C@H]%10[C@H]7[C@H]8C[C@H]9%11 [CARACURINE V]			437	> 100000
C[N+]12CC[C@@]34c5ccccc5N5[C@@H]6OCC=C7C[N+]8(C)CC[C@]9%10c%11ccccc%11N([C@@H]%11OCC=C(C1)[C@H](C[C@@H]32)[C@@H]%11[C@H]54)[C@H]9[C@H]6[C@H]7C[C@@H]%108 (stereo partly drawn) [DIMETHYLCARACURIE V]			8.13	5250
C=CC[N+]12CC[C@@]34c5ccccc5N5[C@@H]6OCC=C7C[N+]8(CC=C)CC[C@]9%10c%11ccccc%11N([C@@H]%11OCC=C(C1)[C@H](C[C@@H]32)[C@@H]%11[C@H]54)[C@H]9[C@H]6[C@H]7C[C@@H]%108 (stereo partly drawn) [DIALLYLCARACURIE V]			11.2	1510

Further lines, with some results ahead:

Selectivity ratio [2]	EC50 [3] [nM]	Compound	EC50 [1] [nM]	Ki (Acetylcholine receptor) [nM]
34	11200	C[N+](C)(C)Cc1c2n(c3ccccc13)Cc1c(C[N+](C)(C)C)c3ccccc3n1C2	229	331
1.5	16600	CN(C)Cc1c2n(c3ccccc13)Cc1c(CN(C)C)c3ccccc3n1C2	447	10700
4.2	2290	C=CC[N+](C)(C)Cc1c2n(c3ccccc13)Cc1c(C[N+](C)(C)CC=C)c3ccccc3n1C2	110	550
